Experimental data reported in patent US7629382B2, “Use of tellurium containing compounds as nerve protecting agents” (BioMAS Ltd., priority 2003, dated 2009).
Several values for one entry are separate records, joined by “and”; a condition that tells them apart may be missing. Identical values can stand only once.

How the values were obtained:
PC12 cells [1] = experiment: Detection of apoptosis in PC12 cells (NGF withdrawal); format: cell-based
Description: (§1) To assess the neuroprotective effects of AS101, PC12 cells were maintained in Dulbecco's modified Eagle's medium supplemented with 8% heat inactivated horse serum, 8% heat inactivated fetal bovine serum, glutamine (5 mM) and 50 μg/ml gentamycin at 37° C.
The percentage of cells undergoing apoptosis was quantitatively determined using an Apoptosis Detection kit, on the basis of their ability to bind annexin V and exclude iodide, and also by an in situ cell detection kit incorporating HTC labeling and TUNEL.

PC12 cells [2] = experiment: Cell cycle distribution of PC12 cells (propidium iodide flow cytometry); format: cell-based
Description: as §1
Cell cycle distribution studies were performed as previously described. Cells were trypsinyzed and suspended for 10 minutes at room temperature at 1.106/ml buffer containing lmg/ml RNAse, 1% NP-40, 10 μg/ml propidium iodide and 0.1% sodium citrate. Propidium iodide fluorescence was measured using a FACStar plus flow cytometer equipped with an air-cooled argon laser delivering 15 mW of light at […]. The red fluorescence from 1.104 cells from each sample was collected through a 610 nm bandpass filter.

PC12 cells [3] = experiment: Neuronal differentiation of PC12 cells; format: cell-based
Description: as §1

[4] = tested on: PC12 cells expressing the dominant negative form (N17) of ras; experiment: Neuronal differentiation of PC12 cells expressing dominant negative ras; format: cell-based
Description: as §1
The ras Asn-17 gene was then cloned into a mammalian expression vector. Transfection of PC12 cells with the plasmid DNA was performed with the calcium phosphate precipitation technique as described previously.

[5] = tested on: PC12 cells expressing a point mutation of Cys118 of P21ras; experiment: Neuronal differentiation of PC12 cells expressing Cys118 point mutation of p21ras; format: cell-based
recombinant p21 ras = recombinant p21 ras (Homo sapiens, UniProt P01112); experiment: Activation of recombinant p21ras by GDP/GTP exchange; format: biochemical; conditions: incubated 10 minutes
Description: AS101 (ammonium trichloro(dioxoethylene-O,O′)tellurate) was incubated with recombinant p21^ras for 10 minutes;
(§2) The effect of AS101 on signaling pathways that are controlled by Ras superfamily GTPases was screened by parallel analysis of the activation of the Ras family GTPases and their effectors (FIG. 1). The primary methods used for studying activation of different Ras superfamily GTPases were: (a) pull down of activated Ras superfamily GTPases from cell lysates, by binding of the specific recombinant purified effector GTPase binding domains to the activated GTP bound form. Subsequent to the pull down of the activated GTPases, the proteins were detected and quantified by western blotting; (b) activation of GTPases effectors such as Raf or RAC, by reporter gene assays; and (c) direct immunoprecipitation kinase assays (FIG. 2).
P21ras was cleaved by cyanogen bromide. This process yielded three fragments, each containing one cysteine residue: fragment 1 containing Cys51 (Mr 7,203); fragment 2 containing Cys60 (Mr 4,540) and fragment 3 containing Cys118 (Mr 6223). To confirm that Cys118 is the molecular target of AS101, a form of p21ras was generated identical to the wild type enzyme except that Cys118 is changed by a Ser residue (referred to as p21rasC118S). […] The stimulation by AS101 of nucleotide exchange on GDP-preloaded p21rasC118S in vitro was determined.

Erk = experiment: Kinase assay of immunoprecipitated Erk with myelin basic protein as substrate; format: cell-based; conditions: Jurkat T cells or NIH3T3 cells
Description: NIH3T3 cells were incubated with AS101 for 10 minutes with or without famesyl transferase inhibitor.
Endogenous JNK and erk were immunoprecipitated from cell lysates with specific antibodies and their activities measured by using p^32 ATP and glutathione s-transferase (GST) e-jun or myelin basic protein (MPB) respectively, as the substrate. Samples were run on SDS-polyacrylamide gel electrophoresis gels and subjected to Phosphorlmager analysis.
as §2

c-raf-1 = experiment: Activation of p21ras downstream effector c-raf-1; format: cell-based; conditions: cells incubated with AS101 for 15 minutes
Description: as §2

p21waf = p21waf protein expression in PC12 cells (Western blotting); format: cell-based; conditions: for effect of pretreatment on p21waf protein expression induced by AS101: PC12 cells pretreated before AS101
Description: PC12 cells were washed in serum-free medium, resuspended to 1-5×10^6cells/ml. After 24 hours of incubation at 37° C. in culture, the cells were supplemented with 3 ml of medium (RPMI 1640 containing 10% FCS, 2% glutamine and 1 mg/ml G418 (Life Technologies, Inc.). After another 24 hours, cells were resuspended and maintained in the selection medium. After 3-4 weeks in selective medium, transfected cells were analyzed for via Western blotting. Results are expressed as percent p21 as compared to the negative (no drug) control.
PC12 cell extracts (20 μg/lane of protein) boiled under reducing conditions, were subjected to electrophoresis on 7.5 and 12.5% polyacrylamide gels and electro-transferred to nitrocellulose membranes. The membrane was blocked for one hour with 10% powdered milk in 0.2% Tween 20, Tris-buffered saline, and then incubated with the appropriate specific detecting antibodies. Immunoreactive proteins were detected with horseradish peroxidase-conjugated secondary antibodies (Amersham, Arlington Heights, Ill.) and a chemiluminescence reagent. For immunoprecipitation studies, immune complexes were precipitated with Protein A-Sepharose (Pharmacia) and, following electrophoresis, were blotted with anti-phosphoserine or anti-phosphotyrosine antibodies.

spinal cord injury = experiment: Rat spinal cord injury model (weight-drop contusion); format: in vivo
Description: Twenty rats were divided into 4 treatment groups (control, AS101 15; 20; 30 μg). Experimental spinal cord injury (SCI) was induced via weight-drop contusion models that result in significant locomotor deficits, including lack of coordination and trunk stability. AS101 was applied topically to the damaged area and rats were treated for 21 days with AS101 administrated i.v. At the end of the first week following SCI, and on days 14 and 21, recovery was determined using Basso, Beattie and Bresnahan (BBB) locomotor scale score.

[6] = rats; intravenous and intramuscular administration; cited from earlier work

Sequence of recombinant p21 ras (P01112 whole entry, species assumed): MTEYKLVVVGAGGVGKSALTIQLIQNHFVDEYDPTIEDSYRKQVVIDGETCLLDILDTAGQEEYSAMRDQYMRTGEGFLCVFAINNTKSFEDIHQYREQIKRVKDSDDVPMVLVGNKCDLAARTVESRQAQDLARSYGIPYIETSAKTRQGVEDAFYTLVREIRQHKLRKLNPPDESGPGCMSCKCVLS

With Cl[TeH]1(Cl)(Cl)OCCO1 [AS101, ammonium trichloro(dioxyethylene-O,O′)tellurate] the Apoptotic (PC12 cells [1]; AS101 0.1 μg/ml) was 8.8%, the Apoptotic (PC12 cells [1]; AS101 0.5 μg/ml) was 5.3% and the Apoptotic (PC12 cells [1]; AS101 1 μg/ml) was 6.6%. The G0/G1 (PC12 cells [2]; AS101 0.1 μg/ml) was 39.7%, the G2/M (PC12 cells [2]; AS101 0.1 μg/ml) was 16.4% and the S (PC12 cells [2]; AS101 0.1 μg/ml) was 43.9%. The G2/M (PC12 cells [2]; AS101 0.5 μg/ml) was 27.9%, the S (PC12 cells [2]; AS101 0.5 μg/ml) was 4.0% and the G0/G1 (PC12 cells [2]; AS101 0.5 μg/ml, 24 hours) was 68.1%. The G0/G1 (PC12 cells [2]; AS101 1 μg/ml) was 67.5%, the G2/M (PC12 cells [2]; AS101 1 μg/ml) was 29% and the S (PC12 cells [2]; AS101 1 μg/ml) was 3.5%. The G0/G1 (PC12 cells [2]; NGF + anti NGF Ab + AS101) was 68%, the G2/M (PC12 cells [2]; NGF + anti NGF Ab + AS101) was 27.6% and the S (PC12 cells [2]; NGF + anti NGF Ab + AS101) was 4.4%. For the same molecule, the neuronal differentiation (PC12 cells [3]) was “induced neuronal differentiation in a dose-dependent manner”, the “optimal doses for inducing neuronal differentiation” value (PC12 cells [3]) was 0.5 µg/mL and 1 µg/mL and the differentiation [4] was “did not result in their differentiation”. The cellular differentiation [5] was “did not result in cellular differentiation”, the “binding to and activation of p21 ras via GDP/GTP exchange” value (recombinant p21 ras) was “directly binds to recombinant p21 ras and activates it via GDP/GTP exchange” and the “activation of ras and downstream effector Erk” value (Erk) was “activated ras and its downstream effector, Erk”. The “activation of c-raf-1” value (c-raf-1) was “could activate”, the p21waf protein expression (p21waf; PC12 cells, 24 h, dose-dependent) was “pronounced increase” and the “reduction in body weight following injury” value (spinal cord injury) was “attenuated”. For the same molecule, the mortality (spinal cord injury; 20 μg AS101 group, two deaths in control group) was “no mortality”, the mortality (spinal cord injury; 30 μg AS101 group, two deaths in control group) was “no mortality” and the “tolerability / adverse side effects” value (spinal cord injury; administration after spinal cord injury) was “well tolerated”. The “BBB locomotor scale score (functional recovery)” value (spinal cord injury; high dose AS101, repeated administration, control 1±1.7) was 3±2, the deaths (spinal cord injury; low dose group, two deaths in control group) was “one” and the “therapeutic effect during second and third weeks of treatment” value (spinal cord injury; second and third weeks) was “no beneficial effect”. The “LD50 relative to immunologically effective dose” value [6] was 500-1000 folds.

For COc1cccc(-c2cc(=O)c3ccccc3o2)c1N [PD98059], the “effect of pretreatment on p21waf protein expression induced by AS101” value (p21waf) was “abolished”.

For COC(=O)[C@H](CCSC)NC(=O)c1ccc(NC[C@@H](N)CS)cc1-c1ccccc1 [farnesyl transferase inhibitor], the “effect of pretreatment on p21waf protein expression induced by AS101” value (p21waf) was “abolished”.
